Test results taken from ChEMBL document CHEMBL1833872, “Improved synthesis and biological evaluation of chelator-modified α-MSH analogs prepared by copper-free click chemistry” (Bioorg Med Chem Lett, 2011).

Target: Melanocyte-stimulating hormone receptor (Mus musculus, UniProt Q01727)
Experiment: Displacement of [125I]-[Nle4-D-Phe7]-alpha-MSH from MC1R in mouse B16-F10 cells after 1.5 hrs by gamma counting
Format: cell-based

Chain of Melanocyte-stimulating hormone receptor (Q01727 whole entry): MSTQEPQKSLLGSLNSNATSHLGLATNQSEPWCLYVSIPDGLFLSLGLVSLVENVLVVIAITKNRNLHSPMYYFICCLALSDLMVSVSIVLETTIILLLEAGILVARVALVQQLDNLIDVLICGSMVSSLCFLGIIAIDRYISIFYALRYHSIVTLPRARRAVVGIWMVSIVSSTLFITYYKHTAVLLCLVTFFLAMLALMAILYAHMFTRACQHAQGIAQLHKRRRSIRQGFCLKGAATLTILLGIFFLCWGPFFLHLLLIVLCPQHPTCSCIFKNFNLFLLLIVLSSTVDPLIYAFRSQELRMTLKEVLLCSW

IC50: 0.25 nM
Compound: CCCC[C@H](NC(=O)[C@H](CO)NC(=O)[C@H](Cc1ccc(O)cc1)NC(=O)[C@H](CO)NCCCCCCN=[N+]=[N-])C(=O)N[C@@H](CCC(=O)O)C(=O)N[C@@H](Cc1cnc[nH]1)C(=O)N[C@H](Cc1ccccc1)C(=O)N[C@@H](CCCN=C(N)N)C(=O)N[C@@H](Cc1c[nH]c2ccccc12)C(=O)NCC(=O)N[C@@H](CCCCN)C(=O)N1CCC[C@H]1C(=O)N[C@H](C(N)=O)C(C)C
